According to PMC5697638, “Identification of a Potent Phosphoinositide 3‐Kinase Pan Inhibitor Displaying a Strategic Carboxylic Acid Group and Development of Its Prodrugs” (Chemmedchem, 2017):

Legend:
Type in all cases: biochemical
[1] = biological target: T1, human PI3Kα (PIK3CA/PIK3R1) (Homo sapiens, UniProt P42336); assay: lipid kinase assay (ADP-Glo), PI3Kα; conditions: for inhibition at 1 µM: determined at 1 μM, at least triplicate, read-out: Inhibitory activity, PI3K isoform α; for IC50: Table 2, mean of at least three determinations, 95 % confidence intervals, read-out: IC50 PI3Kα
T1 construct: purchased ProQinase, Germany 1161‐1165‐1
T1 sequence (P42336 whole entry, canonical isoform): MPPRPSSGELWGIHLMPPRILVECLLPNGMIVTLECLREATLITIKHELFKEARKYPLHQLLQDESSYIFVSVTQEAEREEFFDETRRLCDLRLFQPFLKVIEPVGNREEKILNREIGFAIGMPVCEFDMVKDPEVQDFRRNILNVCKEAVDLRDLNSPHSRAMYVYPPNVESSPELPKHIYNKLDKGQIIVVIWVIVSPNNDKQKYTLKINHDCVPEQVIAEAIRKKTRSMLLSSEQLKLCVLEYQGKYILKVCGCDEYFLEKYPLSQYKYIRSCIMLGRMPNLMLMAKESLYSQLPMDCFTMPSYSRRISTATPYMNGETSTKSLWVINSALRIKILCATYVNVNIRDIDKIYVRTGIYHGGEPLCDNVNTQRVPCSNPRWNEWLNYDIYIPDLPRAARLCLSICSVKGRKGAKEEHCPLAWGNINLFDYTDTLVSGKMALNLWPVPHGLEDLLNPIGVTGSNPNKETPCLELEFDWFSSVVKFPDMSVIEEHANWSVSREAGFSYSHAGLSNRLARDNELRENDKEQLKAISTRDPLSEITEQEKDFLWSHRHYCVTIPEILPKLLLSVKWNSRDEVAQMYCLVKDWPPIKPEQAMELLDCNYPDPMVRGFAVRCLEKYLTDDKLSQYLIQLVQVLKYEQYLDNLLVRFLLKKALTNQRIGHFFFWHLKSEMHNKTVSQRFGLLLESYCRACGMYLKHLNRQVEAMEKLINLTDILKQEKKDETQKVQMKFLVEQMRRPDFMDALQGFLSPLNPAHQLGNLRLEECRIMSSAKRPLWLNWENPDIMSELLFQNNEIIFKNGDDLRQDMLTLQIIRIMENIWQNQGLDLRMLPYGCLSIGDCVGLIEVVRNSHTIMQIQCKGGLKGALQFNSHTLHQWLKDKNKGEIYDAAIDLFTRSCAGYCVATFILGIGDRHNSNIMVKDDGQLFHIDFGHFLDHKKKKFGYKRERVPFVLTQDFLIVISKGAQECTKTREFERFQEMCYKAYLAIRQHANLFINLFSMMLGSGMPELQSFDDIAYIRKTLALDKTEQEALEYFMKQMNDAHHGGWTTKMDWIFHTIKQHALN
T1 sequence (P27986 whole entry partner, canonical isoform): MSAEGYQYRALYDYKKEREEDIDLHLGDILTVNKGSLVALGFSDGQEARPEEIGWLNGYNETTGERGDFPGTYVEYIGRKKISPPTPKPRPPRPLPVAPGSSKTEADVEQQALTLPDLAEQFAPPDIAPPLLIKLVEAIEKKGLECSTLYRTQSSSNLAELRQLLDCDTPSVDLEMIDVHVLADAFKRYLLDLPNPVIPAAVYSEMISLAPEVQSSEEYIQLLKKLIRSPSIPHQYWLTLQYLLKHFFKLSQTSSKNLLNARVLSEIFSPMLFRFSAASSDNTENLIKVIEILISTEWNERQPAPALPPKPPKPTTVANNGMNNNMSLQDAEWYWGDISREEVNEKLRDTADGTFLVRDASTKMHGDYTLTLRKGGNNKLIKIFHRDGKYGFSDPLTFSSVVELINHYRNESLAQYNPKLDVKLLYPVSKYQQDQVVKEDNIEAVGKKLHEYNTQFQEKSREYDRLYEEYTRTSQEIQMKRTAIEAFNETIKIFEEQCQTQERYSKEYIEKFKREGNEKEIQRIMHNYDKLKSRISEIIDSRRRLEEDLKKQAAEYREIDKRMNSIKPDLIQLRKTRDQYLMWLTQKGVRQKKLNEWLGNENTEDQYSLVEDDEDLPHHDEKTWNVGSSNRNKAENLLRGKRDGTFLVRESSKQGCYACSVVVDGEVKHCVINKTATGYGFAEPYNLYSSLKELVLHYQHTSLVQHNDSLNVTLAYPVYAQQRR
Experimental: (§1) In vitro selection, lipid kinase assay: To determine the inhibitory activity of the new molecular entities on PI3K enzyme, a lipid kinase assay was performed: recombinant proteins (30 ng), human PI3Kα (PIK3CA/PIK3R1, #1161‐1165‐1 ProQinase–Germany), hPI3Kβ (PIK3CB wt/PIK3R1, #1168‐1165‐1 ProQinase, Germany), hPI3Kγ (PIK3CG, #1163‐0000‐1 ProQinase, Germany), hPI3Kδ (PIK3CD/PIK3R1, #1162–1165‐1 ProQinase, Germany), hPI3K‐C2α (PIK3C2A, #14‐906 Merck Millipore_Merck KGaA, Germany), hPI3K‐C2β (PIK3C2B, #14‐907 Merck Millipore_Merck KGaA, Germany), hPI3K‐c2γ (PIK3C2G, #1207‐0000‐1 ProQinase, Germany), and hVps34 (PIK3C3, #1160‐0000‐1 ProQinase, Germany), were incubated in kinase buffer {12.5 μL; 20 mM Tris‐HCl pH 7.5, 10 mM MgCl2, 10 μM ATP, 0.05 mg mL^−1 BSA, 0.5 mM EDTA, 5 mM HEPES pH 7.5, for PI3Kα,PI3Kβ, PI3Kγ, PI3Kδ, PI3KC‐2α, and PI3KC‐2γ; 15 mM MnCl2, 5 mM EGTA, 100 μM ATP, 50 mM HEPES pH 7.5, 100 mM NaCl, and 0.03 % CHAPS for PI3K‐C2β and VPS34 {BSA=bovine serum albumin; EDTA=ethylenediaminetetraacetic acid; HEPES=4‐(2‐hydroxyethyl)‐1‐piperazineethanesulfonic acid; EGTA=ethylene glycol‐bis(2‐aminoethylether)‐N,N,N′,N′‐tetraacetic acid; CHAPS=3‐[(3‐cholamidopropyl)dimethylammonio]‐1‐propanesulfonate}. In the reaction, the ATP concentration used for different PI3Ks was defined on the basis of the Michaelis–Menten kinetics of each enzyme, provided by the supplier. Reaction was performed in presence of 0.5 mg mL^−1 lipid micelles (1:1 phosphatidylinositol/phosphatidylserine) and in the absence (DMSO alone) or presence of increasing concentrations of each compound (from 0.1 nM to 30 μM). The mixture was kept at room temperature (RT) for 30 min for PI3Kα, PI3Kβ, PI3Kγ, PI3Kδ, PI3KC‐2α, and PI3KC‐2γ and for 1 h for PI3K‐C2β and PI3K‐C3. The amount of ADP produced in the reaction was measured by using the ADP‐Glo Kinase Assay kit from Promega (#V9102) and a luminescence reader (Glomax multi detection system, Promega, model number 9301‐010).
(§2) The residual PI3K lipid kinase activity in the presence of each molecule at different concentrations was related to the control, intended as the recombinant protein in the presence of DMSO alone and was expressed as a percentage. To derive the IC50 value, all data (% of lipid kinase activity) were plotted on a dose–response curve (Graph Pad software), and the IC50 was calculated by using nonlinear regression fit (equation [log agonist] versus response).

[2] = biological target: T2, hPI3Kβ (PIK3CB wt/PIK3R1) (Homo sapiens, UniProt P42338); assay: lipid kinase assay (ADP-Glo), PI3Kβ; conditions: for inhibition at 1 µM: determined at 1 μM, at least triplicate, read-out: Inhibitory activity, PI3K isoform β; for IC50: Table 2, mean of at least three determinations, 95 % confidence intervals
T2 construct: purchased ProQinase, Germany 1168‐1165‐1
T2 sequence (P42338 whole entry, canonical isoform): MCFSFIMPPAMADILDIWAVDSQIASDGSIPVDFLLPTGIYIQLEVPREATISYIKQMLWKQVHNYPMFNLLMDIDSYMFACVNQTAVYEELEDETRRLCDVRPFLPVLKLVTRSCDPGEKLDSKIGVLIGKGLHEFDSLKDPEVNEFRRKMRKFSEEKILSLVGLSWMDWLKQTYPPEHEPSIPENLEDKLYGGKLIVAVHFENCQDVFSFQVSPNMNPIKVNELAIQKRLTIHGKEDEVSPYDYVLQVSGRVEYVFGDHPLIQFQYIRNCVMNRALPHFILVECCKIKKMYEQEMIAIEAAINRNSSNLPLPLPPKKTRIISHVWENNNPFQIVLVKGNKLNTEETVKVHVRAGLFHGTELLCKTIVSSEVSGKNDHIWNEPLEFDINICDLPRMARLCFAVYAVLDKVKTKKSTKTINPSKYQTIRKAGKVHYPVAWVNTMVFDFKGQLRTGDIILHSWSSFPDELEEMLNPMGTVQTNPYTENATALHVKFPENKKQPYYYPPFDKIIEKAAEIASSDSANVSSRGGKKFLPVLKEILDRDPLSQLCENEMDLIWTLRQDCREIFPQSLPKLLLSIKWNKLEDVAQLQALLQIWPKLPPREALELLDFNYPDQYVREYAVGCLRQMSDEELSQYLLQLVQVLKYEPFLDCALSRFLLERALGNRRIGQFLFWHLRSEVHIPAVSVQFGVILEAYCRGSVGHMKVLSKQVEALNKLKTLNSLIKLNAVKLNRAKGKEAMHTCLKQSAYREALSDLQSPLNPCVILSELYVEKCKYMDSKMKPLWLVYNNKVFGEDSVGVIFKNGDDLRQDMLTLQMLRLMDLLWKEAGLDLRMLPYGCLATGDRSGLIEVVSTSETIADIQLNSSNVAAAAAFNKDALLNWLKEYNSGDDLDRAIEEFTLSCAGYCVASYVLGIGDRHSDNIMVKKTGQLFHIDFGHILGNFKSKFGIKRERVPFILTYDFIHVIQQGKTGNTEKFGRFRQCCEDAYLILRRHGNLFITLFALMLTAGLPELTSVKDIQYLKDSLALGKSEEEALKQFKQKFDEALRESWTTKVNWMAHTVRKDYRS
T2 sequence (P27986 whole entry partner, canonical isoform): as the sequence (P27986 whole entry partner, canonical isoform) above
Experimental: as §1, §2

hPI3Kγ (PIK3CG) = biological target: T3, hPI3Kγ (PIK3CG) (Homo sapiens, UniProt P48736); assay: lipid kinase assay (ADP-Glo), PI3Kγ; conditions: for inhibition at 1 µM: determined at 1 μM, at least triplicate, read-out: Inhibitory activity, PI3K isoform γ; for IC50: Table 2, mean of at least three determinations, 95 % confidence intervals
T3 construct: purchased ProQinase, Germany 1163‐0000‐1
T3 sequence (P48736 whole entry, canonical isoform): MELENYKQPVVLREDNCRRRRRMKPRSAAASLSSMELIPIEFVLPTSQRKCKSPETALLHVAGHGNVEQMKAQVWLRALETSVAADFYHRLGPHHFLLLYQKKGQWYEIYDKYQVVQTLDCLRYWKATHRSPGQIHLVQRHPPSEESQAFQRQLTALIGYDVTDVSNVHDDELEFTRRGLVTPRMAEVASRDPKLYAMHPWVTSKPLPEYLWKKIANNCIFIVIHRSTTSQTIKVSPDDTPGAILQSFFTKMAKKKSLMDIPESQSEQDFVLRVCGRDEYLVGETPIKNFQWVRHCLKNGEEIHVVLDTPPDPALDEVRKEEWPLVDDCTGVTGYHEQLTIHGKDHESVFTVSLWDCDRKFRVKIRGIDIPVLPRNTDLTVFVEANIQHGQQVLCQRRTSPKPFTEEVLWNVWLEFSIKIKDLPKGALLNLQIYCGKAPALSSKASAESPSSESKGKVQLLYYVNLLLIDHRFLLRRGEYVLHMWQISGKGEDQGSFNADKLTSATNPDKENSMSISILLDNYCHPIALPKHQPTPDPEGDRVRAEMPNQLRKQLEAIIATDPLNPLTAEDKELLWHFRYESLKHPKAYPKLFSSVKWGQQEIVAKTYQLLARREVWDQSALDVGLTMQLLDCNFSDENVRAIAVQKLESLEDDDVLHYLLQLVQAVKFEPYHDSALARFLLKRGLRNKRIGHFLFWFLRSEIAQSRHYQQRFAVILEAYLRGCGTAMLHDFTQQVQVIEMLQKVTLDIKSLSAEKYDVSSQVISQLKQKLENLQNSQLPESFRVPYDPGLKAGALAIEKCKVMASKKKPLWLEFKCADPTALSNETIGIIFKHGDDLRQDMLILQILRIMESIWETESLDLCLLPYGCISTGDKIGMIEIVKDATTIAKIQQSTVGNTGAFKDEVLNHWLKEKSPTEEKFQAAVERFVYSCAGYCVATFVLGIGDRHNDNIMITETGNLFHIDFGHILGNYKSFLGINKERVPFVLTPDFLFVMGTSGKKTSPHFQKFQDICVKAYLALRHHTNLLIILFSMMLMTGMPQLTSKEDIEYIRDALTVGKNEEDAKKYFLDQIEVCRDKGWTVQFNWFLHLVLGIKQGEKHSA
Experimental: as §1, §2

hPI3Kδ (PIK3CD/PIK3R1) = biological target: T4, hPI3Kδ (PIK3CD/PIK3R1) (Homo sapiens, UniProt O00329); assay: lipid kinase assay (ADP-Glo), PI3Kδ; conditions: for inhibition at 1 µM: determined at 1 μM, at least triplicate, read-out: Inhibitory activity, PI3K isoform δ; for IC50: Table 2, mean of at least three determinations, 95 % confidence intervals
T4 construct: purchased ProQinase, Germany 1162–1165‐1
T4 sequence (O00329 whole entry, canonical isoform): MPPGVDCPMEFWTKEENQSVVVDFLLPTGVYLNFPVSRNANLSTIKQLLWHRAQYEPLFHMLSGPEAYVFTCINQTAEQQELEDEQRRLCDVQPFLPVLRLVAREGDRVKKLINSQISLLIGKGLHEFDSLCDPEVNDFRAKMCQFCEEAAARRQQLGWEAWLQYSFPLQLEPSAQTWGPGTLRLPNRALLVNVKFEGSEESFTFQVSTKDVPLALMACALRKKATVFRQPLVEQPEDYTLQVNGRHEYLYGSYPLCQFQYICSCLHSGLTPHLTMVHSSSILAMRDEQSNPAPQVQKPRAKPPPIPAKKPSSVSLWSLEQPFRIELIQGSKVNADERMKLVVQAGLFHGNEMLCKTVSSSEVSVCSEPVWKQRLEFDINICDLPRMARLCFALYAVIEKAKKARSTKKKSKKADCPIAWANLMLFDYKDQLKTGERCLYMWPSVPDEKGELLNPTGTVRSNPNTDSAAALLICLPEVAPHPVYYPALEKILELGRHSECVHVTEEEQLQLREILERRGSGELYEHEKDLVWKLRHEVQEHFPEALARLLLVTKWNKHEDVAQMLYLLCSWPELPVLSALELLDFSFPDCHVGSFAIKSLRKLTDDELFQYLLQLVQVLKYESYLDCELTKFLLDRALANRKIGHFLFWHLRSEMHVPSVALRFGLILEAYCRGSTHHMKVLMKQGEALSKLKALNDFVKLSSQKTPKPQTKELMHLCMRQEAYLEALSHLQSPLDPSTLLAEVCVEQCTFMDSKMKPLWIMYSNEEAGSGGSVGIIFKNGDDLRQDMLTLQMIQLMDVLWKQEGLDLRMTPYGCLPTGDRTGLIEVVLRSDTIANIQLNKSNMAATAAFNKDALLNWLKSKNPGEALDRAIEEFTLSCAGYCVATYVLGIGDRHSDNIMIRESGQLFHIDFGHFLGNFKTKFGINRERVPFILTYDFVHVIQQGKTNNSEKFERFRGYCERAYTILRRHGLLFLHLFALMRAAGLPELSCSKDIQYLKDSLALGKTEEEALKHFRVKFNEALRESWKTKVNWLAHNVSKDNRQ
T4 sequence (P27986 whole entry partner, canonical isoform): as the sequence (P27986 whole entry partner, canonical isoform) above
Experimental: as §1, §2

inhibition at 1 µM [1] [%] | inhibition at 1 µM [2] [%] | inhibition at 1 µM (hPI3Kγ (PIK3CG)) [%] | inhibition at 1 µM (hPI3Kδ (PIK3CD/PIK3R1)) [%] | IC50 [1] [nM] | IC50 [2] [nM] | IC50 (hPI3Kγ (PIK3CG)) [nM] | IC50 (hPI3Kδ (PIK3CD/PIK3R1)) [nM] | Structure (SMILES)
< 50 | < 50 | < 50 | < 50 | – | – | – | – | Cc1cc(O)ccc1-n1cc(-c2cccc3c(=O)cc(N4CCOCC4)[nH]c23)nn1 [Compound 40, 8‐[1‐(4‐Hydroxy‐2‐methylphenyl)‐1H‐1,2,3‐triazol‐4‐yl]‐2‐morpholinoquinolin‐4(1H)‐one]
< 50 | < 50 | < 50 | < 50 | – | – | – | – | COc1ccc(-n2cc(-c3cccc4c(=O)cc(N5CCOCC5)[nH]c34)nn2)cc1OC [Compound 43, 8‐[1‐(3,4‐Dimethoxyphenyl)‐1H‐1,2,3‐triazol‐4‐yl]‐2‐morpholinoquinolin‐4(1H)‐one]
> 50 | > 50 | > 50 | > 50 | 320 ± 200 | 300 ± 200 | 300 ± 200 | 170 ± 100 | O=C(O)c1ccc(-n2cc(-c3cccc4c(=O)cc(N5CCOCC5)[nH]c34)nn2)cc1 [Compound 45, 4‐[4‐(2‐Morpholino‐4‐oxo‐1,4‐dihydroquinolin‐8‐yl)‐1H‐1,2,3‐triazol‐1‐yl]benzoic acid]
< 50 | > 50 | > 50 | > 50 | 2650 ± 800 | 100 ± 40 | 1000 ± 500 | 470 ± 260 | O=c1cc(N2CCOCC2)[nH]c2c(-c3cn(Cc4ccccc4)nn3)cccc12 [Compound 48, 8‐(1‐Benzyl‐1H‐1,2,3‐triazol‐4‐yl)‐2‐morpholinoquinolin‐4(1H)‐one]
< 50 | < 50 | < 50 | < 50 | – | – | – | – | COC(=O)c1cccc(-n2cc(-c3cccc4c(=O)cc(N5CCOCC5)[nH]c34)nn2)c1 [Compound 49, Methyl 3‐[4‐(2‐morpholino‐4‐oxo‐1,4‐dihydroquinolin‐8‐yl)‐1H‐1,2,3‐triazol‐1‐yl]benzoate]
< 50 | < 50 | < 50 | < 50 | – | – | – | – | O=C(O)c1cccc(-n2cc(-c3cccc4c(=O)cc(N5CCOCC5)[nH]c34)nn2)c1 [Compound 52, 3‐[4‐(2‐Morpholino‐4‐oxo‐1,4‐dihydroquinolin‐8‐yl)‐1H‐1,2,3‐triazol‐1‐yl]benzoic acid]

Continued, compound first:

Structure (SMILES) | inhibition at 1 µM [1] [%] | inhibition at 1 µM [2] [%] | inhibition at 1 µM (hPI3Kγ (PIK3CG)) [%] | inhibition at 1 µM (hPI3Kδ (PIK3CD/PIK3R1)) [%] | IC50 [1] [nM] | IC50 [2] [nM] | IC50 (hPI3Kγ (PIK3CG)) [nM] | IC50 (hPI3Kδ (PIK3CD/PIK3R1)) [nM]
O=c1cc(N2CCOCC2)[nH]c2c(-c3cn(-c4ccccc4CO)nn3)cccc12 [Compound 41, 8‐{1‐[2‐(Hydroxymethyl)phenyl]‐1H‐1,2,3‐triazol‐4‐yl}‐2‐morpholinoquinolin‐4(1H)‐one] | < 50 | < 50 | < 50 | < 50 | – | – | – | –
COC(=O)c1ccc(-n2cc(-c3cccc4c(=O)cc(N5CCOCC5)[nH]c34)nn2)cc1 [Compound 42, Methyl 4‐[4‐(2‐morpholino‐4‐oxo‐1,4‐dihydroquinolin‐8‐yl)‐1H‐1,2,3‐triazol‐1‐yl]benzoate] | < 50 | < 50 | < 50 | < 50 | – | – | – | –
COc1ccc(-n2cc(-c3cccc4c(=O)cc(N5CCOCC5)[nH]c34)nn2)cc1 [Compound 44, 8‐[1‐(4‐Methoxyphenyl)‐1H‐1,2,3‐triazol‐4‐yl]‐2‐morpholinoquinolin‐4(1H)‐one] | < 50 | < 50 | < 50 | < 50 | – | – | – | –
O=c1cc(N2CCOCC2)[nH]c2c(-c3cn(-c4ccc5c(c4)OCO5)nn3)cccc12 [Compound 46, 8‐[1‐(Benzo[d][1,3]dioxol‐5‐yl)‐1H‐1,2,3‐triazol‐4‐yl]‐2‐morpholinoquinolin‐4(1H)‐one] | < 50 | < 50 | < 50 | < 50 | – | – | – | –
COc1cc(OC)cc(-n2cc(-c3cccc4c(=O)cc(N5CCOCC5)[nH]c34)nn2)c1 [Compound 47, 8‐[1‐(3,5‐Dimethoxyphenyl)‐1H‐1,2,3‐triazol‐4‐yl]‐2‐morpholinoquinolin‐4(1H)‐one] | < 50 | < 50 | < 50 | < 50 | – | – | – | –
NS(=O)(=O)c1ccc(-n2cc(-c3cccc4c(=O)cc(N5CCOCC5)[nH]c34)nn2)cc1 [Compound 50, 4‐[4‐(2‐Morpholino‐4‐oxo‐1,4‐dihydroquinolin‐8‐yl)‐1H‐1,2,3‐triazol‐1‐yl]benzenesulfonamide] | < 50 | < 50 | < 50 | < 50 | – | – | – | –
O=c1cc(N2CCOCC2)[nH]c2c(-c3cn(-c4cccc5ccccc45)nn3)cccc12 [Compound 53, 2‐Morpholino‐8‐[1‐(naphthalen‐1‐yl)‐1H‐1,2,3‐triazol‐4‐yl]quinolin‐4(1H)‐one] | < 50 | < 50 | < 50 | < 50 | – | – | – | –
O=c1cc(N2CCOCC2)[nH]c2c(-c3cn(-c4ccccc4O)nn3)cccc12 [Compound 54, 8‐[1‐(2‐Hydroxyphenyl)‐1H‐1,2,3‐triazol‐4‐yl]‐2‐morpholinoquinolin‐4(1H)‐one] | > 50 | < 50 | < 50 | > 50 | 260 ± 120 | 1100 ± 500 | 1400 ± 440 | 350 ± 170
Cc1cc(F)ccc1Oc1cccc2c(=O)cc(N3CCOCC3)[nH]c12 [TGX155, reference compound] | – | – | – | – | > 10000 | 96 ± 7 | 9400 ± 1200 | 410 ± 130
